Tests used:
[1] = target: Serine/threonine-protein kinase PLK1 (Homo sapiens) (UniProt P53350)
[2] = target: Glycogen synthase kinase-3 beta (Homo sapiens, UniProt P49841)
[3] = target: Calcium/calmodulin-dependent protein kinase type II subunit delta (Homo sapiens) (UniProt Q13557)
[4] = target: Dual specificity mitogen-activated protein kinase kinase 2 (Homo sapiens, UniProt P36507)
[5] = target: TRAF2 and NCK-interacting protein kinase (Homo sapiens) (UniProt Q9UKE5)
[6] = target: Serine/threonine-protein kinase pim-1 (Homo sapiens) (UniProt P11309)
[7] = target: Serine/threonine-protein kinase 25 (Homo sapiens) (UniProt O00506)
[8] = target: Dual specificity protein kinase CLK1 (Homo sapiens) (UniProt P49759)
[9] = target: Calcium/calmodulin-dependent protein kinase type II subunit gamma (Homo sapiens) (UniProt Q13555)
[10] = target: Calcium/calmodulin-dependent protein kinase type II subunit alpha (Homo sapiens) (UniProt Q9UQM7)
[11] = target: Serine/threonine-protein kinase 10 (Homo sapiens) (UniProt O94804)
[12] = target: Serine/threonine-protein kinase 26 (Homo sapiens) (UniProt Q9P289)
[13] = target: Cyclin-dependent kinase-like 1 (Homo sapiens) (UniProt Q00532)
[14] = target: Serine/threonine-protein kinase PAK 6 (Homo sapiens) (UniProt Q9NQU5)
[15] = target: Serine/threonine-protein kinase 26 (Homo sapiens) (UniProt Q9P289); remark: listed apart in the source
[16] = target: Casein kinase I isoform gamma-2 (Homo sapiens) (UniProt P78368)
[17] = target: T1, Mitogen-activated protein kinase kinase kinase 5 (Homo sapiens) (UniProt Q99683)
T1 sequence (whole entry): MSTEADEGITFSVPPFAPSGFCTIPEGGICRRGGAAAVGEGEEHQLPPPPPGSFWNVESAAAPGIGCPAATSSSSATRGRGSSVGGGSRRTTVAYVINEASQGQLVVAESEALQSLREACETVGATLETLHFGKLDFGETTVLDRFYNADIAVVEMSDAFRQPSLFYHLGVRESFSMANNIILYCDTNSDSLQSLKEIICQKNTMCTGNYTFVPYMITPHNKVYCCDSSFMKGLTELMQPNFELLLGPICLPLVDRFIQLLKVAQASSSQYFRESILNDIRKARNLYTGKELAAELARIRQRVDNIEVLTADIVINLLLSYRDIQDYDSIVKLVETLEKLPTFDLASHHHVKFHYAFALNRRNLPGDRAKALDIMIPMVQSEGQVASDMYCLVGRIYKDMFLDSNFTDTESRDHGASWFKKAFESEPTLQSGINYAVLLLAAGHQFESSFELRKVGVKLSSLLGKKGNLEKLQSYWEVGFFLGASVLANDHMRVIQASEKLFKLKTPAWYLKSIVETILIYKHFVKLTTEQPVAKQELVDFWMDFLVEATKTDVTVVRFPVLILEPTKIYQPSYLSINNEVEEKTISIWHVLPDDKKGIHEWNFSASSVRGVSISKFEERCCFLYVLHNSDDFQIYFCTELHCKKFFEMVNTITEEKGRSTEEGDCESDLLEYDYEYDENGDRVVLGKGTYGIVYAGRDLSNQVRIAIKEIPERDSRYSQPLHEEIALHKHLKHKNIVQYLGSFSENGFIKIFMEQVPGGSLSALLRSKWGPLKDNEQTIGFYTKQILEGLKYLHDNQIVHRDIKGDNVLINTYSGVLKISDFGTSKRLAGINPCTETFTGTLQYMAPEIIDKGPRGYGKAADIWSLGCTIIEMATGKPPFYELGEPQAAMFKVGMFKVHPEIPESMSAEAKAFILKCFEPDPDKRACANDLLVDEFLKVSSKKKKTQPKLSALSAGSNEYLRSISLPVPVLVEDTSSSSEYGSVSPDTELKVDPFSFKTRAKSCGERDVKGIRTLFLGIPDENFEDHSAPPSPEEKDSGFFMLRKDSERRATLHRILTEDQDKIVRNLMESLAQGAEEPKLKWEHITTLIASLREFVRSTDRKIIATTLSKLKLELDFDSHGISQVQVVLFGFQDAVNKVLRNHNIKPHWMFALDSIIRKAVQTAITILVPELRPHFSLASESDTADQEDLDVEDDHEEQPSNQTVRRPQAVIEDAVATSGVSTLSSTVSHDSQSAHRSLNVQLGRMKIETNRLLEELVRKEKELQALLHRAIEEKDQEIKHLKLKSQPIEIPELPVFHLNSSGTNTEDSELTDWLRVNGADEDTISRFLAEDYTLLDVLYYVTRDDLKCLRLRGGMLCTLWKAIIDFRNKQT

[18] = target: T2, Serine/threonine-protein kinase Nek2 (Homo sapiens) (UniProt P51955)
T2 sequence (whole entry): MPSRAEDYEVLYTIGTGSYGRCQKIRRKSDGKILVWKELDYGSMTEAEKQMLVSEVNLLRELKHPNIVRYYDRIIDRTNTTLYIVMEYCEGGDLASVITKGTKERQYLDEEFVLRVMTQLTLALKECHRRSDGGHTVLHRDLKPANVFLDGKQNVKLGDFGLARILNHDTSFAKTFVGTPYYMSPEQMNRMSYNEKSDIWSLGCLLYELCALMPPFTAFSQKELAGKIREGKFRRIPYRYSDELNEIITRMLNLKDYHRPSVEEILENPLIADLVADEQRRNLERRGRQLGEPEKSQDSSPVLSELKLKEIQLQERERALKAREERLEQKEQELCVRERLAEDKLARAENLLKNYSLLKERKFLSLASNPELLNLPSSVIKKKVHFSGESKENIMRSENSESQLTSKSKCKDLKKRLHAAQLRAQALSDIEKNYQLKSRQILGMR

[19] = target: Cyclin-dependent kinase 2 (Homo sapiens, UniProt P24941)

Serine/threonine-protein kinase PLK1 (Homo sapiens), sequence (P53350 whole entry): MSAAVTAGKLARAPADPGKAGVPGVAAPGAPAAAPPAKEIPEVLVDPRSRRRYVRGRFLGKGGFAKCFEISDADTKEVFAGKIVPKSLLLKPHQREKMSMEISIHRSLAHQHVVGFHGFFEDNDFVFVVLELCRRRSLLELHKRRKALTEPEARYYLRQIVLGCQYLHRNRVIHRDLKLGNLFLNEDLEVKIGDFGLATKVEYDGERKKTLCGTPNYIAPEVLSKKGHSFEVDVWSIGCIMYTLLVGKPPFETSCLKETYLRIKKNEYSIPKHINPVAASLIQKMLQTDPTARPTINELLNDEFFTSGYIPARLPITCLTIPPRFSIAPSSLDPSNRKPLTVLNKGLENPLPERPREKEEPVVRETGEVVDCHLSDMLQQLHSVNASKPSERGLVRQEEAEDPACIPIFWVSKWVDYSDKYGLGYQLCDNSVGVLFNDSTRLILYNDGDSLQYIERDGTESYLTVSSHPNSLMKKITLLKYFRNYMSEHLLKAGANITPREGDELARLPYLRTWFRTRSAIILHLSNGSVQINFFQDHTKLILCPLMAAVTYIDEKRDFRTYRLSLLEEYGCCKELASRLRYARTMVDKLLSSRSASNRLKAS
Calcium/calmodulin-dependent protein kinase type II subunit gamma (Homo sapiens), sequence (Q13555 whole entry): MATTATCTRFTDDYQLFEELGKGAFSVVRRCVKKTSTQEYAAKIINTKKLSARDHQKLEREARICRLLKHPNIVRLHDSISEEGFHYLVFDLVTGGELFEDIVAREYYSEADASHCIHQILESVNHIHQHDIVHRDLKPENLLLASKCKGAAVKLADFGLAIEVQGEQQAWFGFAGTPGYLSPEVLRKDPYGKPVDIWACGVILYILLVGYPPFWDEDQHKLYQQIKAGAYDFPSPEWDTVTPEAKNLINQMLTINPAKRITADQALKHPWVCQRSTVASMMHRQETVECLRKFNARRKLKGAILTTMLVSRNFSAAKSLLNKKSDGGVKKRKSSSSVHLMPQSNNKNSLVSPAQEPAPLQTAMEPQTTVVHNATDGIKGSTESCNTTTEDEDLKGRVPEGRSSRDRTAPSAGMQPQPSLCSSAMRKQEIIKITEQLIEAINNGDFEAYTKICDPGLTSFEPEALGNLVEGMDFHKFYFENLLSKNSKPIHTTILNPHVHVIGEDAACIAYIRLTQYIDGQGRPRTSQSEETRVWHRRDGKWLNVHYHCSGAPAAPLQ
Serine/threonine-protein kinase PAK 6 (Homo sapiens), sequence (Q9NQU5 whole entry, looked up): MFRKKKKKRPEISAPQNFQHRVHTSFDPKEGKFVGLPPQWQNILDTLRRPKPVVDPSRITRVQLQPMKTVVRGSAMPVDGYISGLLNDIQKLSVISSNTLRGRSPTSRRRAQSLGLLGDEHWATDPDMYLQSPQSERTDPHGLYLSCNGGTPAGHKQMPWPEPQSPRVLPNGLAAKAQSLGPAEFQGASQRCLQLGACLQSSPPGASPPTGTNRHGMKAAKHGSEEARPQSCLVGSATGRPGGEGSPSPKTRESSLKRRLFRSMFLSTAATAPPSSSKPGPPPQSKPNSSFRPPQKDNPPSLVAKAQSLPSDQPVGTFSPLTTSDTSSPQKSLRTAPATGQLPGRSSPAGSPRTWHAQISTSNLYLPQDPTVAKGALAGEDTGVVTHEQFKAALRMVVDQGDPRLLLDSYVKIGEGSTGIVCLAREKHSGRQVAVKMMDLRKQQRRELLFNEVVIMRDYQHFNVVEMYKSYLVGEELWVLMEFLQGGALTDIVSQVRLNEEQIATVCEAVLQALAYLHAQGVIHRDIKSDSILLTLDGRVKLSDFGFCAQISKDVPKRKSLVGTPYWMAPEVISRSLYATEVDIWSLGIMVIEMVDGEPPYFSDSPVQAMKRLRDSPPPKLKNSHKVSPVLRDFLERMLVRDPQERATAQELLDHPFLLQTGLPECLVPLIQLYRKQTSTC
Dual specificity mitogen-activated protein kinase kinase 2, sequence (P36507 whole entry): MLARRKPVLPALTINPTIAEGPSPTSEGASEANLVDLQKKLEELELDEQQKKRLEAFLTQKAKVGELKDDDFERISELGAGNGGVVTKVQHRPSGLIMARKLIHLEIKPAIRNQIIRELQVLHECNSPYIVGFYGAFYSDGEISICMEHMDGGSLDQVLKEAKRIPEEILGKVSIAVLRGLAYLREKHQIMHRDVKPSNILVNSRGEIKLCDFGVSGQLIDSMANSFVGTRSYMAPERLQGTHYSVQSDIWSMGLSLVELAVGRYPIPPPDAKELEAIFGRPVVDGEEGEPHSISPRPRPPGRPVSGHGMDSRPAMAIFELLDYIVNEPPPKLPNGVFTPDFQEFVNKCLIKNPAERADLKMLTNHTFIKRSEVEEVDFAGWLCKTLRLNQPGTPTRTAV
Serine/threonine-protein kinase 26 (Homo sapiens), sequence (Q9P289 2-416 limits assumed): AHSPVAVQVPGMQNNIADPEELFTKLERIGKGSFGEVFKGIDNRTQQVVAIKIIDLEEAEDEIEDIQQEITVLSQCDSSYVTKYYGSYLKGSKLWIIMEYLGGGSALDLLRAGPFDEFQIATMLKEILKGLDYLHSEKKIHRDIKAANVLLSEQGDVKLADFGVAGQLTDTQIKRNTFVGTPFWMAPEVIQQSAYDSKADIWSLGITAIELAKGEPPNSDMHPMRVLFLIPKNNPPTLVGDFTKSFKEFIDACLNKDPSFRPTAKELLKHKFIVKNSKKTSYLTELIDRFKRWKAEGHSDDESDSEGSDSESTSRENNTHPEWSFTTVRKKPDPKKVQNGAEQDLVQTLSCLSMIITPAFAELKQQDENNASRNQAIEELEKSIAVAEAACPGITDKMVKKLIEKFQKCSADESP
Glycogen synthase kinase-3 beta, sequence (P49841 whole entry, looked up): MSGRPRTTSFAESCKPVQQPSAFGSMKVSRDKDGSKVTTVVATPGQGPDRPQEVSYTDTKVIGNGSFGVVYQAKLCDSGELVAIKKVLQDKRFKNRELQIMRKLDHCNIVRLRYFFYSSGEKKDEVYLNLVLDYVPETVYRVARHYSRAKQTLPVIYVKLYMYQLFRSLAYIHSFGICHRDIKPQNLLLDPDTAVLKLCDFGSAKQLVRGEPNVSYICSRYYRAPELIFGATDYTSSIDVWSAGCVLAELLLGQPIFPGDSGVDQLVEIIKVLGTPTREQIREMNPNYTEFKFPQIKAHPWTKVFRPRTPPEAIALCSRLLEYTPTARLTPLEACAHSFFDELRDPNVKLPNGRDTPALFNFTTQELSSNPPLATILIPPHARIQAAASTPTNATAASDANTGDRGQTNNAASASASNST
Cyclin-dependent kinase-like 1 (Homo sapiens), sequence (Q00532 whole entry): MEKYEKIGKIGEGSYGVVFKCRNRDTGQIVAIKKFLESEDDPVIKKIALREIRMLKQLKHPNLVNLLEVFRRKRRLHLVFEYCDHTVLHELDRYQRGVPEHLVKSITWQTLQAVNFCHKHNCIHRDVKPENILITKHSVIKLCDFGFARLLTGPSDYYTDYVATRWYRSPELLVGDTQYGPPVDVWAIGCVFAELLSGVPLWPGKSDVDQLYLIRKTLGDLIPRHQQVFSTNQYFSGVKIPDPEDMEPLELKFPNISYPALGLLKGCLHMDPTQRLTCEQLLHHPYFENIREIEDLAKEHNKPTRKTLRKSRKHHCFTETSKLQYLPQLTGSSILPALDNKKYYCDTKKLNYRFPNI
TRAF2 and NCK-interacting protein kinase (Homo sapiens), sequence (Q9UKE5 whole entry, looked up): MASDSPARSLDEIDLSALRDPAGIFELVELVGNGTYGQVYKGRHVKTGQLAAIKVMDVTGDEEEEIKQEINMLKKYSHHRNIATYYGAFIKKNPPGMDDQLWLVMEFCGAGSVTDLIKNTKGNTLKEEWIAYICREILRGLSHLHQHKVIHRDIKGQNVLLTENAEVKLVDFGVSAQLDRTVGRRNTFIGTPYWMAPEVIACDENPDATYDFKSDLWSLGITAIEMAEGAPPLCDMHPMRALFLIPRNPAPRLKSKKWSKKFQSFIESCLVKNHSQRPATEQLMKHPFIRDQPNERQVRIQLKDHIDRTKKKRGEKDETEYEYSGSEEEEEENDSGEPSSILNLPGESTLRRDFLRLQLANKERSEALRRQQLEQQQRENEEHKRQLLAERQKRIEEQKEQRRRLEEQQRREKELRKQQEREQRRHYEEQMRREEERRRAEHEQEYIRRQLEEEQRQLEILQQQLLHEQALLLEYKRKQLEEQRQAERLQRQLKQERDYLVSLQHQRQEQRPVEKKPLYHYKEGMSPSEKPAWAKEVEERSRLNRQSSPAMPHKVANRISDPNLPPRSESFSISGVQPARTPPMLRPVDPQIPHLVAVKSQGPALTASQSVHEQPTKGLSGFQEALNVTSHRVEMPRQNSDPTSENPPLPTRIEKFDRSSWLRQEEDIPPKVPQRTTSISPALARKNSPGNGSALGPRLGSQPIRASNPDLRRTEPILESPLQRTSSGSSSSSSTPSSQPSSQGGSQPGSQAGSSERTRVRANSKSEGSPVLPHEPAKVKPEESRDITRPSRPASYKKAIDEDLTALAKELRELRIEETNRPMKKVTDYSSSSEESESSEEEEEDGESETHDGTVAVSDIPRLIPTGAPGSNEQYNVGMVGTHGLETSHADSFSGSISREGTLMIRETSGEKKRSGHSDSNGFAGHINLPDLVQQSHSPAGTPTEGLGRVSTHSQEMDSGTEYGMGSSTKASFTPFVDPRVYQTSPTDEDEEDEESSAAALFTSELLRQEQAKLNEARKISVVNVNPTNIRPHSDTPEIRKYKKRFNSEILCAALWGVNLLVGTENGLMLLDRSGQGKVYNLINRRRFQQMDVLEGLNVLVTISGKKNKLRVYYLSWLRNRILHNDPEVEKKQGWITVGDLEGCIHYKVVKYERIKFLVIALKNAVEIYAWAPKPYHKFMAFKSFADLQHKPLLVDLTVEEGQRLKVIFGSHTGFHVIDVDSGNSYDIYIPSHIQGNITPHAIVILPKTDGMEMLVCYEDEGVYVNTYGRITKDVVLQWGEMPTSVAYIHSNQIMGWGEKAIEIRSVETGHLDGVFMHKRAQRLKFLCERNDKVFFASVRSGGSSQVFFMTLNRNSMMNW

SMILES | ΔTm [1] [°C] | ΔTm [2] [°C] | ΔTm [3] [°C] | ΔTm [4] [°C] | ΔTm [5] [°C] | ΔTm [6] [°C] | ΔTm [7] [°C] | ΔTm [8] [°C] | ΔTm [9] [°C] | ΔTm [10] [°C] | ΔTm [11] [°C] | ΔTm [12] [°C] | ΔTm [13] [°C] | ΔTm [14] [°C] | ΔTm [15] [°C] | ΔTm [16] [°C] | ΔTm [17] [°C] | ΔTm [18] [°C] | ΔTm [19] [°C]
COc1ccc2c(c1)/C(=C/c1cnc[nH]1)C(=O)N2 [SU-9516] | 0.7 | 8.7 | -0.5 | 1.7 | 5.7 | 1.3 | 6.4 | 3.4 | 1 | 1 | 3.5 | 2 | 5.8 | 2.3 | 4.2 | 0.7 | 5.4 | 1.2 | –
Cn1cnc2c(NCc3ccccc3)nc(NCCO)nc21 [OLOMOUCINE] | -0.9 | 0.1 | -0.2 | -0.4 | 0.3 | -1 | 0 | -0.2 | 0.1 | -0.3 | 0.5 | 0 | 0 | -0.5 | 0.2 | 0.5 | 0.1 | 1.1 | –
O=C(Nc1cccc(Nc2cc(Nc3cccc(C(F)(F)F)c3)ncn2)c1)C1CC1 | 0 | 1.1 | -2 | 1 | -0.2 | 1 | – | 1.9 | -2 | 1.8 | 0 | 0.8 | 1.5 | -0.3 | 1.7 | 2.3 | 0.9 | 2 | -1.5
NCCNc1ncc(C(N)=O)c(Nc2cccc(C(F)(F)F)c2)n1 | 0.7 | 8.1 | -0.6 | 5.1 | 1.3 | 5.7 | – | 2.2 | 1.1 | -0.3 | 2.8 | 0.1 | 0.6 | 0.9 | 1 | 0.7 | -0.1 | 0.2 | 0.1
Cc1[nH]c(/C=C2\C(=O)Nc3ccc(S(=O)(=O)N(C)c4cccc(Cl)c4)cc32)c(C)c1C(=O)N1CCN(C)CC1 | 1.9 | 4.2 | 0.5 | 1 | 0.4 | -0.2 | – | 2.1 | 0.6 | 3 | 1.8 | -0.2 | -0.5 | 2 | 5 | 0.3 | -0.7 | 0.1 | -0.4
Cc1cc(Nc2nc(-c3ccccc3)nc3ccccc23)n[nH]1 | 10.8 | 8.6 | 0.7 | 3.2 | -1 | 1.7 | – | 5.8 | 1.9 | 1.4 | 11.1 | 9.5 | 1.5 | 5.4 | 3.3 | 3.3 | 0.9 | 3 | 3
NC(=O)c1ccc2[nH]c(-c3ccc(Oc4ccc(Cl)cc4)cc3)nc2c1 | 4.4 | 1 | 1.5 | -1.2 | -1.6 | 0.4 | – | 1.2 | -0.1 | 0.1 | 0.3 | 1.3 | 0.1 | -0.8 | -0.1 | 1.6 | 1 | 1.4 | -0.7
O=C1Nc2ccccc2/C1=C\c1ccc[nH]1 | -0.6 | 3.3 | -0.5 | 2.4 | 6.2 | 0.1 | – | 2.7 | 1.4 | 1.2 | 5.3 | 3.9 | 1.4 | 1.6 | 3.5 | 1.6 | 5.2 | 1.7 | 3.4
CC[C@H](CO)Nc1nc(NCc2ccccc2)c2ncn(C(C)C)c2n1 [SELICICLIB] | 1 | 0.4 | 0.1 | – | 0.4 | -1 | 0.3 | 2.1 | 0.3 | – | – | 0.3 | 0.2 | 0.5 | 0.6 | – | 1 | 0.7 | –
COc1cc2c(cc1OC)-c1n[nH]c(Nc3cccc(F)c3)c1C2 | -0.2 | 2.9 | 1.2 | 0.7 | 0.7 | 0.5 | – | 0.1 | -0.1 | 0.3 | 2.5 | -0.2 | -0.1 | 0.5 | 1.2 | 0.3 | 4 | 0.6 | 0
CC(C)c1nn(-c2c(Cl)cccc2Cl)c2nc(Cc3ccc(OCCO)cc3)[nH]c(=O)c12 | 1.4 | 0.2 | 0.6 | 0.4 | 0 | 0 | – | 3.6 | 0.7 | 0.4 | 0.6 | 0.5 | 0.2 | -0.1 | -0.3 | -0.3 | 1 | 1.5 | 10.6
CCOc1ccc(/C=C2/SC(=O)N(CCN)C2=O)cc1 [HIAZOLIDINEDIONE1] | 0.6 | -1.3 | 0 | 0.4 | -0.4 | -0.4 | – | 0.9 | 0 | -0.2 | 0.8 | -0.1 | 0.3 | -0.5 | -0.3 | 0.6 | 0.4 | 0.8 | -0.1

Source: ChEMBL document CHEMBL1145498, “A systematic interaction map of validated kinase inhibitors with Ser/Thr kinases” (Proc Natl Acad Sci U S A, 2007)
